In patent US20050059615A1, “Transmucosal dosage forms for brain-targeted steroid chemical delivery systems” (priority 2003, published 2005):

Experiments:
[1] = test system: SHBG (Sex Hormone-binding Globulin); assay: Phase I clinical study: SHBG; assay type: in vivo, postmenopausal women
Description: A brief evaluation of the results follows:

LH [2] = assay: Plasma LH in ovariectomized female rats (radioimmunoassay); assay type: in vivo, Sprague Dawley rats
Method: After recovery from surgery, ovariectomized female rats were divided into four groups and treated once a day for five days intravenously, via a bolus injection through the tail vein, as follows: (1) control, 27% HPβCD solution; (2) 0.003 mg/kg E2-CDS dissolved in 27% HPβCD solution; (3) 0.01 mg/kg E2-CDS dissolved in 27% HPβCD solution; and (4) 0.03 mg/kg E2-CDS dissolved in 27% HPβCD solution. A minimal number of ovariectomized (8 to 12) females were used per group. Intravenous treatments either with E2-CDS or HPβCD (controls) were carried out daily for 5 days beginning 2 days prior to the first day of behavior observations, in a volume of 0.05 mL/100 g body weight.
An experienced and active male rat was placed in the arena 5 minutes prior to the female. […] The lordosis quotient (LQ) expresses the estrogen effect on sexual receptivity and was calculated as follows: LQ=100×number of lordoses/10 mounts The observation of the sexual behavior of each female was carried out, in the case of E2-CDS, every day for 22 days; in the case of EB, investigations were carried out every day for 10 days. […] Citrated blood samples were taken by retro-orbital sinus puncture under light ether anesthesia. The samples were stored at 4EC for one hour, then centrifuged at 1000 g for 10 minutes. Plasma was separated and stored at −80EC until assayed. Plasma LH concentrations from individual samples were measured by double antibody radioimmunoassay kits obtained from Amersham Pharmacia Biotech, Rome, Italy. […] The limit of detection was 15 pg/mL.
(§1) Behavioral changes were analyzed using the Mann-Whitney U test (Siegel, Nonparametric Statistics for the Behavioral Sciences, New York; McGraw-Hill Book Company, Inc., 1956). The Fisher exact test was used for percentage comparisons (Zar, Biostatistical Analysis, Prentice Hall, Inc., Englewood Cliffs, N.J., 1974). Serum LH data were analyzed for each time and treatment group by analysis of variance (ANOVA) followed by Bonferroni posthoc test.

[3] = Plasma estradiol in orchidectomized male rats (radioimmunoassay); assay type: in vivo, Sprague Dawley rats; settings: limit of detection 15 pg/mL
Method: (§2) Four weeks following orchidectomy, groups of rats were treated with one of the following drug doses via tail vein injection: E2-CDS 0.03, 0.3, and 3 mg/kg. Blood samples were collected by orbital sinus puncture under light ether anesthesia. The samples were stored at 4EC for one hour and centrifuged at 1,000 g for 10 minutes. Plasma was separated and stored at −80EC until assayed. Plasma LH concentrations from individual samples were measured by double antibody radioimmunoassay kits obtained from Amersham Pharmacia Biotech, Rome, Italy. […] The limit of detection was 15 pg/mL.
as §1
(§3) The testing described above was repeated using a dose of 0.03 mg/kg administered as a single i.v. injection, and a dose of 0.01 mg/kg with daily i.v. administration for 10 days. E2-CDS stock solution (40%) was diluted in 27% HPβCD solution.

castrated male rats = assay: Male rat sexual (copulatory) behavior after orchidectomy; assay type: in vivo, Sprague Dawley rats
Method: Adult male Sprague Dawley rats (300-400 g) from Charles River Hungary Ltd., Godollo, Hungary, were used. Animals were kept in community cages (4 animals/cage) in a climate-controlled room (23∀2EC), with a 14 hour light, 10 hour dark cycle of artificial lighting, using reversed light/dark cycle. […] These hormones were dissolved in sunflower oil.
After establishment of basal behaviors as discussed below, selected animals were orchidectomized via a single midventral incision and were rehoused.
After repeated testing of animals recovered from orchidectomy as discussed below, rats were divided into four groups and treated intravenously, via a single tail vein injection, with one of the following: group 1: control (27% hydroxypropyl-β-cyclodextrin); group 2: 0.03 mg/kg E2-CDS; group 3: 0.3 mg/kg E2-CDS; and group 4: 3 mg/kg E2-CDS.
Mating was observed during the dark cycle in a plexi observation cage in a room where only a dim red light was on. The male was placed in the observation cage 5 minutes prior to the female.
The following parameters were then measured: • Mount latency (ML): the time from the introduction of the female to the initial mount or intromission; • Intromission latency (IL): the time from introduction of the female to the first intromission; and • Ejaculatory latency (EL): the time from the first intromission to ejaculation.
Sessions were considered negative if IL exceeded 15 minutes.
To establish basal behavior, each male was tested every 5 days until four successive and consistent behavioral patterns were achieved. This pretesting lasted for about four weeks. Approximately half of the animals tested were deemed suitable for orchidectomy.
Twenty-eight days after healing from orchidectomy, the animals were tested again (Day 0) and divided into 4 experimental groups. Only animals displaying ejaculation latencies greater than 15 minutes were included in the study.
Tests of male sexual behavior were conducted 3, 7, 14, 21, 28, 35 and 42 days after drug administration or until the effect disappeared, i.e. until no statistically significant difference was found between groups during two consecutive tests.
Behavioral patterns and related times were recorded manually by skilled observers.
as §1, §3
The copulatory behavior of E2-CDS treated groups was compared to that of the HPβCD control group at 1, 3, 7, 14, and 21 days after i.v. drug administration in the 0.03 mg/kg group and at 1, 3, 7, 14 and 21 days after initial i.v. drug administration in the 0.01 mg/kg×10 days group.

LH [4] = assay: Plasma LH in orchidectomized male rats (radioimmunoassay); assay type: in vivo, Sprague Dawley rats
Method: as §2, §1, §3

[5] = 0.03 mg/kg single i.v., first study
[6] = 0.01 mg/kg i.v. daily for 10 days
[7] = 0.01 mg/kg i.v. daily for 10 days, by day 14
[8] = 3.0 mg/kg single i.v., days 14, 21 and 28

In the case of CN1C=CCC(C(=O)O[C@H]2CC[C@H]3[C@@H]4CCc5cc(O)ccc5[C@H]4CC[C@]23C)=C1 [E2-CDS, 17β-[(1-methyl-1,4-dihydro-3-pyridinyl)carbonyloxy]estra-1,3,5(10)-trien-3-ol], the “SHBG concentration higher than at baseline on day 1” value ([1]; Group A, day 13) is reported as 22.2%, the “SHBG concentration higher than at baseline on day 1” value ([1]; Group B, day 16) is reported as 41.2% and the “duration of plasma LH suppression” value (LH [2]; 0.003 mg/kg i.v. daily for 5 days) is reported as “up to 15 days”. For the same compound, the “duration of statistically significant plasma LH suppression” value (LH [2]; 0.03 mg/kg i.v. daily for 5 days) was “up to 18 days”, the “effect on plasma LH levels” value (LH [2]; all dosage levels tested: 0.003, 0.01 and 0.03 mg/kg i.v. daily for 5 days) was “suppressed” and the “estradiol levels after treatment” value ([3]; 0.01 mg/kg daily for 10 days i.v.) was “below the limit of detection”. The “estradiol levels after treatment” value ([3]; 0.03 mg/kg single dose i.v., repeated study) was “below the limit of detection”, the “estradiol levels after treatment” value [3, 5] was “below the limit of detection” and the “estradiol levels after treatment” value ([3]; 0.3 mg/kg single i.v., first study) was “below the limit of detection”. The intromission frequency (castrated male rats; [6]) was “not increased significantly”, the intromission latency (castrated male rats; [6]) was “reduced significantly” and the mount frequency (castrated male rats; [6]) was “increased significantly”. The mount latency (castrated male rats; [6]) was “reduced significantly”, the “intromission performance restored (% of animals)” value (castrated male rats; [7]) was 50% and the “mounting performance restored (% of animals)” value (castrated male rats; [7]) was 67%. The “effect on re-establishment of copulatory behavior” value (castrated male rats; 0.03 mg/kg single i.v.) was “no statistically significant effect”, the sexual activity (castrated male rats; 0.03 mg/kg single i.v., repeated testing) was “improved sexual activity, but it was not statistically significant” and the “mounting performance restored (% of the animals)” value (castrated male rats; 0.3 mg/kg single i.v., by day 7) was 100%. For the same compound, the mount frequency (castrated male rats; 0.3 mg/kg single i.v., day 7) was “significantly increased”, the mount latency (castrated male rats; 0.3 mg/kg single i.v., day 7 through day 28) was “sharply reduced” and the “mounting performance restored (% of the animals)” value (castrated male rats; 3.0 mg/kg single i.v., by day 14 and day 21) was 100%. For the same compound, the mount latency (castrated male rats; 3.0 mg/kg single i.v., day 7 through day 28) was “sharply reduced”, the intromission performance (castrated male rats; 3.0 mg/kg single i.v., day 14 through day 28) was “improved in a statistically significant manner” and the mount frequency (castrated male rats; 3.0 mg/kg single i.v., days 7, 14, 21 and 28) was “significantly increased”. The intromission frequency (castrated male rats; [8]) was “statistically significant increase”, the intromission latency (castrated male rats; [8]) was “decrease” and the “plasma LH level” value (LH [4]; 0.01 mg/kg, 10 daily i.v. injections, day 3 to day 14) was “significantly reduced”. The “plasma LH levels” value (LH [4]; [5]) was “not reduced”, the “plasma LH level” value (LH [4]; 0.03 mg/kg single injection, repeated examination, day 3 only) was “significantly reduced” and the “plasma LH levels” value (LH [4]; 0.3 mg/kg single i.v., days 1, 3 and 7) was “significantly reduced”. For the same compound, the “plasma LH levels” value (LH [4]; 3 mg/kg single i.v., throughout 28 days) was “suppressed significantly”.
